Source: patent US10351561B2, “Pyrazolo[3,4-b]pyridines and imidazo[1,5-b]pyridazines as PDE1 inhibitors” (H. Lundbeck A/S, priority 2016, dated 2019)

What was measured:
Type in all cases: biochemical
PDE1A = PDE1A (Homo sapiens, UniProt P54750); assay: PDE1 inhibition assay (PDE1A), SPA with tritium labelled cAMP; details: 15 nM tritium labelled cAMP, 1 hr at room temperature, SPA beads
Procedure: (§1) PDE1A, PDE1B and PDE1C assays were performed as follows: the assays were performed in 60 μL samples containing a fixed amount of the PDE1 enzyme (sufficient to convert 20-25% of the cyclic nucleotide substrate), a buffer (50 mM HEPES (4-(2-hydroxyethyl)-1-piperazineethanesulfonic acid) pH 7.6; 10 mM MgCl2; 0.02% Tween20), 0.1 mg/ml BSA (bovine serum albumin), 15 nM tritium labelled cAMP and varying amounts of inhibitors. Reactions were initiated by addition of the cyclic nucleotide substrate, and reactions were allowed to proceed for 1 hr at room temperature before being terminated through mixing with 20 μL (0.2 mg) yttrium silicate SPA beads (PerkinElmer). The beads were allowed to settle for 1 hr in the dark before the plates were counted in a Wallac 1450 Microbeta counter. The measured signals were converted to activity relative to an uninhibited control (100%) and IC50 values were calculated using XIFit (model 205, IDBS).

PDE1B = PDE1B (Homo sapiens, UniProt Q01064); assay: PDE1 inhibition assay (PDE1B), SPA with tritium labelled cAMP; details: 15 nM tritium labelled cAMP, 1 hr at room temperature, SPA beads; read-out: PDE1B, IC50
Procedure: Reactions were initiated by addition of the cyclic nucleotide substrate, and reactions were allowed to proceed for 1 hr at room temperature before being terminated through mixing with 20 μL (0.2 mg) yttrium silicate SPA beads (PerkinElmer).

PDE1C = PDE1C (Homo sapiens, UniProt Q14123); assay: PDE1 inhibition assay (PDE1C), SPA with tritium labelled cAMP; details: 15 nM tritium labelled cAMP, 1 hr at room temperature, SPA beads
Procedure: as §1

Chain of PDE1C (Q14123 whole entry): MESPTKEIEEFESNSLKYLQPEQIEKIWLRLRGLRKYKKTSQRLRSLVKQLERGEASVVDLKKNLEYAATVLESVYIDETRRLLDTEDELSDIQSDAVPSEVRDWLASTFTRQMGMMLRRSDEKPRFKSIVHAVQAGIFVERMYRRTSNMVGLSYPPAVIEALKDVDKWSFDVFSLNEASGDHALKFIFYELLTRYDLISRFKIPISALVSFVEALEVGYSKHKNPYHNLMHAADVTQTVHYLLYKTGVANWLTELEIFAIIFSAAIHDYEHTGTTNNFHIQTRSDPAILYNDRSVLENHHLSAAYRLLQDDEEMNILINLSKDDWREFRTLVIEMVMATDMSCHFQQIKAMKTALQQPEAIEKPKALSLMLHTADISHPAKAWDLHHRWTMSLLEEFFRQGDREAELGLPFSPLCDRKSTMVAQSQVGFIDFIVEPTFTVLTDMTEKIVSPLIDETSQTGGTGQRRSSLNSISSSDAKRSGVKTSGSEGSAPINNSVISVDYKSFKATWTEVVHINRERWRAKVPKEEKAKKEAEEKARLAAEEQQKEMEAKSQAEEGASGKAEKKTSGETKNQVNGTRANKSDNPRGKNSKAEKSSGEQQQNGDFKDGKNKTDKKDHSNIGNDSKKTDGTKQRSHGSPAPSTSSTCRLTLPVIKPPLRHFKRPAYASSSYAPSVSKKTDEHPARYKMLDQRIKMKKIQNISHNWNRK
Chain of PDE1B (Q01064 whole entry): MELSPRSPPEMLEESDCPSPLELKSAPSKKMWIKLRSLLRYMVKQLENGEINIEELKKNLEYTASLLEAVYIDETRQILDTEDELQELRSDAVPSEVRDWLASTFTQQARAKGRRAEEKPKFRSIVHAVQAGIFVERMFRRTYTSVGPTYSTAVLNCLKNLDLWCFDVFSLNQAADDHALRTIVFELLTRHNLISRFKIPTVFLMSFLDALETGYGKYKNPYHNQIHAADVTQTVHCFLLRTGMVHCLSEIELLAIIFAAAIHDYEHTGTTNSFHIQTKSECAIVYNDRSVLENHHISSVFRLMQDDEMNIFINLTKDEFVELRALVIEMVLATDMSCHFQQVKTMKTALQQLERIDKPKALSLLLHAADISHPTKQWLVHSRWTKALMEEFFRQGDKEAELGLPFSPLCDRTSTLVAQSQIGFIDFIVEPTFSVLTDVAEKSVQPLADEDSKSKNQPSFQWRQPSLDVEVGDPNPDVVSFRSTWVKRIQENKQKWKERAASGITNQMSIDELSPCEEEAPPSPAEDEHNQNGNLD
Chain of PDE1A (P54750 whole entry): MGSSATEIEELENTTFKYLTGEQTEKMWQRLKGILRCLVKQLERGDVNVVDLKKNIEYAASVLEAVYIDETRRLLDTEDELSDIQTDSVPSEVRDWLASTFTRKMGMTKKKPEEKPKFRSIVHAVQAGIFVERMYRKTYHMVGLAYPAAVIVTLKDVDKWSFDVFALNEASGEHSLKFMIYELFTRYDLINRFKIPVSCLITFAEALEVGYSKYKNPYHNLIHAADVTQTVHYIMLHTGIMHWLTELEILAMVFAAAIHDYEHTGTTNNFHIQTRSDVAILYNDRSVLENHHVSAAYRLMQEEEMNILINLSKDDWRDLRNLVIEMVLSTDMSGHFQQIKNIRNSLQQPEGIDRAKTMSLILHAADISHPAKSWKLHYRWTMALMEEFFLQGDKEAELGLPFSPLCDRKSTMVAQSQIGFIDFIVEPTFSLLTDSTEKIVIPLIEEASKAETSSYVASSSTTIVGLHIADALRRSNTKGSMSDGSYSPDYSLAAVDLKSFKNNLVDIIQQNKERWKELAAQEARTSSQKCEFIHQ

Row | SMILES | IC50 (PDE1A) [nM] | IC50 (PDE1B) [nM] | IC50 (PDE1C) [nM]
1 | CCOc1ncccc1-c1cc(NCc2nc(C)no2)c2c(C(C)C)nn(C)c2n1 [Example 32, 6-(2-ethoxy-3-pyridyl)-3-isopropyl-1-methyl-N-[(3-methyl-1,2,4-oxadiazol-5-yl)methyl]pyrazolo[3,4-b]pyridin-4-amine] | 82 | 7.8 | 63
2 | CCOc1ncccc1-c1cc(NCc2cccnc2F)c2c(C(C)C)nc(C)n2n1 [Example 73, 2-(2-ethoxy-3-pyridyl)-N-[(2-fluoro-3-pyridyl)methyl]-5-isopropyl-7-methyl-imidazo[1,5-b]pyridazin-4-amine] | 33 | 3.6 | 29
3 | COc1nccnc1-c1cc(NCc2ncn(C)n2)c2c(C(C)C)nn(C)c2n1 [Example 57, 3-isopropyl-6-(3-methoxypyrazin-2-yl)-1-methyl-N-((1-methyl-1H-1,2,4-triazol-3-yl)methyl)-1H-pyrazolo[3,4-b]pyridin-4-amine] | 91 | 22 | 6.5
4 | COc1ncncc1-c1cc(NCc2ncn(C)n2)c2c(C(C)C)nn(C)c2n1 [Example 64, 3-isopropyl-6-(4-methoxypyrimidin-5-yl)-1-methyl-N-[(1-methyl-1,2,4-triazol-3-yl)methyl]pyrazolo[3,4-b]pyridin-4-amine] | 66 | 13 | 2.9
5 | CCOc1ncccc1-c1cc(NCc2cn[nH]c2)c2c(C(C)C)nc(C)n2n1 [Example 18, 2-(2-ethoxy-3-pyridyl)-5-isopropyl-7-methyl-N-(1H-pyrazol-4-ylmethyl)imidazo[1,5-b]pyridazin-4-amine] | 33 | 5.7 | 16
6 | CCOc1ncccc1-c1cc(NCc2ncn(C)n2)c2c(C(C)CC)nc(C)n2n1 (single isomer, unassigned; (-)) [Example 49, (−)-2-(2-ethoxy-3-pyridyl)-7-methyl-N-[(1-methyl-1,2,4-triazol-3-yl)methyl]-5-[1-methylpropyl]imidazo[1,5-b]pyridazin-4-amine] | 14 | 1.4 | 7.6
7 | CCOc1ncccc1-c1cc(NCc2cnn(C)c2)c2c(C(C)C)nn(C)c2n1 [Example 19, 6-(2-ethoxy-3-pyridyl)-3-isopropyl-1-methyl-N-[(1-methylpyrazol-4-yl)methyl]pyrazolo[3,4-b]pyridin-4-amine] | 44 | 5.8 | 56
8 | CCOc1ncccc1-c1cc(NCc2ccn(C)n2)c2c(C(C)C)nn(C)c2n1 [Example 21, 6-(2-ethoxy-3-pyridyl)-3-isopropyl-1-methyl-N-[(1-methylpyrazol-3-yl)methyl]pyrazolo[3,4-b]pyridin-4-amine] | 30 | 5.3 | 36
9 | CCOc1ncccc1-c1cc(NCc2ncon2)c2c(C(C)C)nc(C)n2n1 [Example 43, 2-(2-ethoxy-3-pyridyl)-5-isopropyl-7-methyl-N-(1,2,4-oxadiazol-3-ylmethyl)imidazo[1,5-b]pyridazin-4-amine] | 40 | 5.8 | 34
10 | CCOc1ncccc1-c1cc(NCc2cn[nH]c2)c2c(C(C)C)nn(C)c2n1 [Example 30, 6-(2-ethoxy-3-pyridyl)-3-isopropyl-1-methyl-N-(1H-pyrazol-4-ylmethyl)pyrazolo[3,4-b]pyridin-4-amine] | 85 | 16 | 76
11 | CCOc1ncccc1-c1cc(NCc2cnn(C)n2)c2c(C(C)C)nc(C)n2n1 [Example 44, 2-(2-ethoxy-3-pyridyl)-5-isopropyl-7-methyl-N-[(2-methyltriazol-4-yl)methyl]imidazo[1,5-b]pyridazin-4-amine] | 38 | 5.1 | 24
12 | CCOc1ncccc1-c1cc(NCc2cc[nH]n2)c2c(C(C)CC)nc(C)n2n1 (single isomer, unassigned; (+)) [Example 51, (+)-2-(2-ethoxy-3-pyridyl)-7-methyl-N-(1H-pyrazol-3-ylmethyl)-5-[1-methylpropyl]imidazo[1,5-b]pyridazin-4-amine] | 57 | 4.3 | 31
13 | CC(C)c1nn(C)c2nc(-c3cccn(C)c3=O)cc(NCc3ncn(C)n3)c12 [Example 56, 3-(3-isopropyl-1-methyl-4-(((1-methyl-1H-1,2,4-triazol-3-yl)methyl)amino)-1H-pyrazolo[3,4-b]pyridin-6-yl)-1-methylpyridin-2(1H)-one] | 290 | 52 | 480
14 | CCOc1ncccc1-c1cc(NCc2cc[nH]n2)c2c(C(C)C)nn(C)c2n1 [Example 3, 6-(2-ethoxy-3-pyridyl)-3-isopropyl-1-methyl-N-(1H-pyrazol-3-ylmethyl)pyrazolo[3,4-b]pyridin-4-amine] | 56 | 4.3 | 58
15 | CCOc1ncccc1-c1cc(NCc2ccc(OC)nc2)c2c(C(C)C)nn(C)c2n1 [Example 37, 6-(2-ethoxy-3-pyridyl)-3-isopropyl-N-[(6-methoxy-3-pyridyl)methyl]-1-methyl-pyrazolo[3,4-b]pyridin-4-amine] | 120 | 27 | 46

The remaining lines, values ahead:

Row | IC50 (PDE1A) [nM] | IC50 (PDE1B) [nM] | IC50 (PDE1C) [nM] | SMILES
16 | 5.8 | 0.64 | 4.9 | CCOc1ncccc1-c1cc(NCc2cnn(C)c2)c2c(C(C)CC)nc(C)n2n1 (single isomer, unassigned; (+)) [Example 48, (+)-2-(2-ethoxy-3-pyridyl)-7-methyl-N-[(1-methylpyrazol-4-yl)methyl]-5-[1-methylpropyl]imidazo[1,5-b]pyridazin-4-amine]
17 | 19 | 2.8 | 16 | CCOc1ncccc1-c1cc(NCc2cnc(C)o2)c2c(C(C)C)nc(C)n2n1 [Example 16, 2-(2-ethoxy-3-pyridyl)-5-isopropyl-7-methyl-N-[(2-methyloxazol-5-yl)methyl]imidazo[1,5-b]pyridazin-4-amine]
18 | 2.4 | 0.22 | 2.6 | CCOc1ncccc1-c1cc(NCc2cn(C)cn2)c2c(C(C)C)nc(C)n2n1 [Example 8, 2-(2-ethoxy-3-pyridyl)-5-isopropyl-7-methyl-N-[(1-methylimidazol-4-yl)methyl]imidazo[1,5-b]pyridazin-4-amine]
19 | 21 | 6.3 | 28 | CCOc1cnccc1-c1cc(NCc2cnn(C)c2)c2c(C(C)C)nc(C)n2n1 [Example 70, 2-(3-ethoxy-4-pyridyl)-5-isopropyl-7-methyl-N-[(1-methylpyrazol-4-yl)methyl]imidazo[1,5-b]pyridazin-4-amine]
20 | 18 | 1.6 | 33 | CCOc1ncccc1-c1cc(NCc2cn(C)nn2)c2c(C(C)C)nn(C)c2n1 [Example 29, 6-(2-ethoxy-3-pyridyl)-3-isopropyl-1-methyl-N-[(1-methyltriazol-4-yl)methyl]pyrazolo[3,4-b]pyridin-4-amine]
21 | 3.8 | 0.29 | 2.5 | Cc1nc(C(C)C)c2c(NCc3ncn(C)n3)cc(-c3cccc4ncoc34)nn12 [Example 81, 2-(1,3-benzoxazol-7-yl)-5-isopropyl-7-methyl-N-[(1-methyl-1,2,4-triazol-3-yl)methyl]imidazo[1,5-b]pyridazin-4-amine]
22 | 7.8 | 2.7 | 19 | CCCOc1nnccc1-c1cc(NCc2ncn(C)n2)c2c(C(C)C)nn(C)c2n1 [Example 67, 3-isopropyl-1-methyl-N-[(1-methyl-1,2,4-triazol-3-yl)methyl]-6-(3-propoxypyridazin-4-yl)pyrazolo[3,4-b]pyridin-4-amine]
23 | 29 | 4.6 | 31 | Cc1sccc1-c1cc(NCc2ncn(C)n2)c2c(C(C)C)nn(C)c2n1 [Example 58, 3-isopropyl-1-methyl-6-(2-methyl-3-thienyl)-N-[(1-methyl-1,2,4-triazol-3-yl)methyl]pyrazolo[3,4-b]pyridin-4-amine]
24 | 15 | 1.6 | 13 | CCOc1ncccc1-c1cc(NCc2cc[nH]n2)c2c(C(C)C)nc(C)n2n1 [Example 10, 2-(2-ethoxy-3-pyridyl)-5-isopropyl-7-methyl-N-(1H-pyrazol-3-ylmethyl)imidazo[1,5-b]pyridazin-4-amine]
25 | 7.3 | 1.7 | 9 | CCOc1ncccc1-c1cc(NCc2ccnc(OC)c2)c2c(C(C)C)nc(C)n2n1 [Example 15, 2-(2-ethoxy-3-pyridyl)-5-isopropyl-N-[(2-methoxy-4-pyridyl)methyl]-7-methyl-imidazo[1,5-b]pyridazin-4-amine]
26 | 27 | 3.4 | 25 | CCOc1ncccc1-c1cc(NCc2cc(OC)ccn2)c2c(C(C)C)nn(C)c2n1 [Example 39, 6-(2-ethoxy-3-pyridyl)-3-isopropyl-N-[(4-methoxy-2-pyridyl)methyl]-1-methyl-pyrazolo[3,4-b]pyridin-4-amine]
27 | 14 | 1.2 | 20 | CCOc1ncccc1-c1cc(NCc2cc(C)[nH]n2)c2c(C(C)C)nn(C)c2n1 [Example 6, 6-(2-ethoxy-3-pyridyl)-3-isopropyl-1-methyl-N-[(5-methyl-1H-pyrazol-3-yl)methyl]pyrazolo[3,4-b]pyridin-4-amine]
